Experimental data: the METLIN SMRT retention time set (Domingo-Almenara et al. 2019)

Experiment: gradient 5% acetonitrile 3 min, to 50% in 2 min, to 85% in 15 min, held 3 min, 100 µL/min
Settings: column: Zorbax Extend-C18 2.1 x 50 mm; eluents: water / acetonitrile, 0.1% formic acid
Summary of the method: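 In both positive and negative ionization mode, a quadrupole time-of-flight mass spectrometer coupled to HPLC analyzed pure standards run in mixtures of ~100 molecules. The Zorbax Extend-C18 column (2.1 × 50 mm, 1.8 μm) was operated at 100 μL/min with water and acetonitrile, each containing 0.1% formic acid. The dead volume was 40 μL and the dwell volume 900 μL. Retention time came from adduct peaks that were computationally picked and individually inspected by hand.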

In order of rising RP-LC retention time:
1. CCN1CCN(CCNC(=O)Cn2ccc3c(C)nn(CC)c3c2=O)CC1  557 s
2. Cc1cc(=O)n(CC(=O)Nc2ccccc2C)c(N)n1  590 s
3. COc1cc2c(cc1OC)C(C(=O)NCCCN1CCOCC1)C1c3ccccc3CCN1C2=O (configuration not stated)  592 s
4. CN(C)CCNC(=O)c1cccc(Nc2c(-c3ccc(Cl)cc3)nc3cnccn23)c1  611 s
5. Cc1cccc2nnc(N3CCN(C(=O)c4cccs4)CC3)n12  618 s
6. Cc1ccc(CNC(=O)Cn2c(N3CCCC3)nc(C)cc2=O)cc1  618 s
7. CS(=O)(=O)N1CCCN(C(=O)NC2CCCC2)CC1  636 s
8. COC(=O)c1cccc(NC(=O)N2C[C@H]3C[C@@H](C2)c2cccc(=O)n2C3)c1  636 s
9. O=C(C1CCCC1)N1CCCC(c2nn[nH]n2)C1 (configuration not stated)  636 s
10. CSc1ccc(CNC(=O)c2cc3ccncc3n2C)cc1  637 s
11. O=C(Cc1ccc(Br)cc1)N1CCN(C(=O)c2cc(-c3cccnc3)n[nH]2)CC1  638 s
12. CCC(=O)N1CCc2c(c(C(=O)N3CCC(C(=O)NCc4ccc(OC)cc4)CC3)nn2C)C1  640 s
13. CCCNc1nnc(-c2nnc(CC)o2)c2ccccc12  647 s
14. COC(=O)c1ccc(NC(=O)CSc2nnc(-c3cccs3)o2)cc1  648 s
15. Cc1c2cnn(CC(=O)N3CCN(c4ccccn4)CC3)c(=O)c2c(C)n1Cc1ccccc1F  650 s
16. COc1ccc(-n2nnc(C(=O)O)c2-c2ccccn2)cc1  654 s
17. O=C(NCc1ccc2c(c1)OCO2)C1CCCN(c2ccnc(-c3ccc(F)cc3)n2)C1 (configuration not stated)  660 s
18. O=C(CN1Cc2ccccc2C1=O)N[C@@H](Cc1c[nH]c2ccccc12)C(=O)O  661 s
19. COc1ccc(S(=O)(=O)Nc2cc(-c3cn4ccc(C)cc4n3)ccc2C)cc1  662 s
20. CN(C)C(=O)c1ccc(-c2nnc3ccc(NC(=O)C4CCC4)cn23)cc1  664 s
21. Cc1cc(=O)n(CC(=O)Nc2ccc(F)cc2F)c(N2CCCCC2)n1  672 s
22. CCc1ccc(OCC(=O)OCCNC(=O)c2ccncc2)cc1  673 s
23. CC1CCCN(c2ccc(-c3noc(CN4CCC5(CC4)OCCO5)n3)cn2)C1 (configuration not stated)  680 s
24. Cc1cccc(NC(=O)N2CCN(c3cc(C)nc(N4CCCC4)n3)CC2)c1  680 s
25. Cn1c(=O)n(CCN2CCCCC2)c(=O)c2c1nc1n2CCCN1C1CCCCC1  681 s
26. Cc1nc(Nc2ncc(C(=O)Nc3c(C)cccc3Cl)s2)cc(N2CCN(CCO)CC2)n1  682 s
27. CCOc1cccc(CNc2nc3ccncc3n(C(C)C)c2=O)c1  687 s
28. O=C(Cc1ccccc1Br)NC1CCN(c2cc(-c3cccs3)[nH]n2)C1 (configuration not stated)  689 s
29. CC1=NN(CCC#N)C(=O)/C1=C\c1ccc(N(C)C)cc1  691 s
30. Cc1nnc(C2CCCCCN2S(=O)(=O)c2cccnc2)o1 (configuration not stated)  691 s
31. O=C(CCc1c(-c2ccc(F)cc2)nc2ccccn12)Nc1cc(F)ccc1F  697 s
32. COC1CN(c2cccc(F)c2)C12CCN(Cc1ccccn1)CC2 (configuration not stated)  699 s
33. Cc1ccc(NC(=O)Cc2nnc(-c3cnccn3)o2)c(Cl)c1  720 s
34. COC(=O)c1ccc(NC(=O)N2CCC3(CC2)NC(=O)c2ccccc2O3)cc1  726 s
35. CC(CCc1ccccc1)NC(=O)CCc1c(-c2ccc(F)cc2)nc2ccccn12 (configuration not stated)  727 s
36. Cc1ccc(C)c(NC(=O)NCC(c2cccnc2)c2cn(C)c3ccccc23)c1 (configuration not stated)  733 s
37. O=C(NCc1ccccc1Br)c1cn2ccccc2n1  736 s
38. Cc1cc2[nH]c(C(=O)Nc3ccc(F)c(F)c3)c(CN3CCOCC3)c2s1  740 s
39. COCCc1nncn1C1CCN(S(=O)(=O)c2cccc(C(F)(F)F)c2)CC1  752 s
40. Cc1nc(N2CCN(c3ccccn3)CC2)c2c(C)c(C(=O)Nc3cccc(Cl)c3C)sc2n1  752 s
41. Cn1cc(-c2nnc(SCC(=O)N3CCc4ccccc4C3)n2C)c(-c2ccccc2)n1  754 s
42. Cc1nc(CC(=O)Nc2ccc(F)c(Cl)c2)sc1C(=O)NC1CC1  759 s
43. CCOC(=O)N1CCC(NC(=O)Cn2cc(-c3ccc(C)cc3)oc2=O)CC1  772 s
44. Cc1sc2ccn(C)c(=O)c2c1C(=O)NCc1cc(F)ccc1F  781 s
45. COc1ccc(S(=O)(=O)N2CCC(c3noc(-c4cnccn4)n3)C2)cc1 (configuration not stated)  784 s
46. Cc1nnc(NC(=O)Cc2csc(Nc3ccc(OC(F)(F)F)cc3)n2)s1  790 s
47. CCCn1cc(CCNC(=O)c2cc3ccccc3[nH]2)c2cccnc21  794 s
48. Cc1cc(N2CCN(S(=O)(=O)c3cccc(F)c3)CC2)nc(NC2CCCCC2)n1  797 s
49. C[C@@H]1C(=O)O[C@H]2[C@H](O)[C@@]34C5C[C@@H](C(C)(C)C)[C@]36[C@H](OC(=O)[C@@H]6O)OC4(C(=O)O5)[C@@]12O (some centres not stated)  802 s
50. CCOC(=O)c1ccc(NC(=O)N2CCCC2c2cc(C)on2)cc1 (configuration not stated)  809 s
51. Cn1ncc(Cl)c1C(=O)N1CCCC1c1cccc(F)c1 (configuration not stated)  813 s
52. Clc1cccc(-c2cc3c(N4CCN(Cc5ccc6c(c5)OCO6)CC4)nccn3n2)c1  820 s
53. CCCNC(=O)c1ccc(-c2ccc3c(c2)CCN3C(=O)CC)cc1  822 s
54. CCn1nc(CNC(=O)C2CCCCC2)c2ccccc21  828 s
55. O=C(Cn1nc(N2CCCC2)c2ccccc2c1=O)NCc1ccccc1  837 s
56. CN(C(=O)CCCOc1ccc2[nH]c(=O)ccc2c1)C1CCCCC1  840 s
57. O=C(Cn1c(=O)c(S(=O)(=O)c2ccccc2)cc2ccccc21)NC1CCCC1  840 s
58. Cc1cc(C)cc(NC(=O)Cn2nc(N3CCOCC3)c3ccccc3c2=O)c1  840 s
59. CC(C)CCNC(=O)C1CCCN(c2ccc(=O)n(-c3cccc(F)c3)n2)C1 (configuration not stated)  868 s
60. Cc1ccc(CNC(=O)C2CCN(S(=O)(=O)c3cc(C(=O)N4CCCC4)n(C)c3)CC2)cc1  872 s
61. CCn1cc(-c2nc(CC(=O)Nc3ccccc3F)cs2)c2cccnc21  874 s
62. O=C1CN(S(=O)(=O)c2cccc(Cl)c2)CC2(CCOCC2)N1CC1CC1  877 s
63. Cc1cc(-c2nnc(-c3ccco3)o2)c(C)n1CC(=O)NCc1ccc(F)c(Cl)c1  882 s
64. Cn1nc(C2CCN(S(=O)(=O)Cc3cccc(Cl)c3)CC2)n(C2CCCC2)c1=O  888 s
65. COc1cc(Cl)c(CC2C(=O)Nc3ccccc32)cc1OC (configuration not stated)  900 s
66. COc1ccc(-n2c(=O)n(C)c(=O)c3cc(C(=O)Nc4cc(C)ccc4F)cnc32)cc1  912 s
67. Cc1ccc(C)c(NC(=O)CN2C(=O)CCCc3cc(S(=O)(=O)N4CCCC4)ccc32)c1  918 s
68. CCc1ccc(C2=C(C)C(N3CCCN(C(=O)NCCC(C)C)CC3)=NS2(=O)=O)cc1  926 s
69. Cc1nn(-c2ccccc2)c(C)c1S(=O)(=O)N1CCC(C(=O)Nc2ccc(C#N)cc2)CC1  938 s
70. O=c1n(Cc2cccc(F)c2)nc2c(S(=O)(=O)N3CCc4ccccc4C3)cccn12  938 s
71. CCCS(=O)(=O)N1CC(=O)N(c2cccc(F)c2)C(C)(C(=O)NC2CCCCCC2)C1 (configuration not stated)  956 s
72. O=C(c1csc(N2CCN(c3ccc(F)cc3)CC2)n1)N1CCCC1  963 s
73. Fc1ccc(-c2nn3c(CSc4ccccc4)nnc3s2)cc1  967 s
74. Cc1ccc(CNC(=O)C2(C)CCCN(C(=O)Nc3cccc(C)c3)C2)cc1 (configuration not stated)  967 s
75. COc1ccc(N2C(=O)C3N=NN(Cc4nc(-c5ccc(C)cc5)no4)C3C2=O)cc1 (configuration not stated)  992 s
76. O=C(NCC1CCS(=O)(=O)C1)c1cc(-c2ccccc2)on1 (configuration not stated)  1010 s
77. Cc1ccc(S(=O)(=O)N2C[C@@H](F)C[C@H]2C(=O)N2CCc3ccccc3C2)cc1Cl  1020 s
78. CC(=O)c1cccc(NC(=O)Cn2cccc2-c2nc(-c3ccccc3)cs2)c1  1030 s
79. CCOc1cccc(-c2noc(Cn3c(=O)n(CCCOC)c(=O)c4ccccc43)n2)c1  1040 s
80. Cc1nn(CC(=O)NCCC2=CCCCC2)c(=O)c2c(-n3cccc3)n(-c3cccc(F)c3)nc12  1090 s
81. O=C(NCCC1=CCCCC1)C1CCCN(c2nc3ccsc3c(=O)n2Cc2ccc(F)cc2)C1 (configuration not stated)  1090 s
82. O=c1c2cc(-c3cccs3)nn2cnn1Cc1nc(-c2cccc(C(F)(F)F)c2)no1  1140 s
83. CCCN1C(=O)COc2ccc(-c3noc(-c4ccccc4F)n3)cc21  1160 s
84. O=C(CCSc1ccc(Cl)cc1)Nc1nc(-c2ccccc2)cs1  1170 s
85. CCn1c(=O)c(N2CCCC(C(=O)N3CCN(c4cccc(Cl)c4)CC3)C2)nc2ccccc21 (configuration not stated)  1240 s
86. CN(C)S(=O)(=O)N1CCC2(CC1)CN(c1cccc(F)c1)C2c1ccccc1 (configuration not stated)  1250 s
87. Cc1ccc(Sc2nccnc2N2CCC(C(=O)N3CCN(c4ccc(C)cc4)CC3)CC2)cc1  1290 s
